# Experimental data taken from patent US12390464B2, “Treatment of EGFR mutant-related cancers using a combination of EGFR and CDK4/6 inhibitors” (BETA PHARMA, INC., priority 2019, dated 2025).
# Several values for one entry are separate records, joined by “and”; a condition that tells them apart may be missing. Identical values can stand only once.
# Columns and labels:
# [1] = system: MCF7 human breast cancer cell line; settings: cited from earlier work
# [2] = system: HCC827 tumors (delE746-A750 activating mutation); test: Antitumor activity in the HCC827 mouse xenograft model; assay type: in vivo; settings: oral QD; for Tumor Weight Inhibition Rate: tumors harvested day 35; for Tumor Weight: tumors harvested day 35, mean ± SD, n = 8
# Method: Cell Culture and Implantation. HCC827 cells were cultured in a CO2 incubator in culture media containing modified RPMI (Hyclone, Cat: SH30809.01); 10% fetal bovine serum (Gibco, Cat: 10099-141); 100 U/ml penicillin and 100 μg/ml streptomycin (Hyclone, Cat: SV30010). Cells were digested with 0.25% trypsin (Hyclone, Cat: SH30042.01) and subcultured every four days. When the required cells was in the logarithmic growth phase, the cell counts were collected and the tumors were subcutaneously implanted in Balb/c nude female mice (14-19 g) at 1×10^7/0.2 mL/mouse (50% Matrigel CORNING, Cat: 354234) in the right back side of each mouse. 8 days after implantation, 56 mice with tumor volume of 132-289 mm^3 were selected and randomly divided into 7 groups according to tumor volume and body weight.
# Test Sample Preparation Formulation and Administration. A stock solution of 1 as the methanesulfonate salt was prepared at 0.3 mg/mL in normal saline. A stock solution of 2 as the hydrochloride salt was prepared 2.0 mg/mL in sterile water. The vehicle control was a solution of 0.5% sodium carboxymethyl cellulose in sterile water. All stock solutions were stored at 2-8° C. and prepared fresh on a weekly basis. The stock solutions were administered orally either individually or in combination at the indicated salt dosages depicted in FIG. 1 and Table 2 once a day for 14 days. Dosing was suspended when body weight lost more than 15%.
# Tumor Volume Determination and Data Analysis. The tumor volumes were determined twice per week by measuring the length and width of each tumor with a Vernier caliper and calculating the tumor volume. All tumors were harvested on day 35 and weighed. The Tumor Weight Inhibition Rate (IRTW%) was calculated via the equation: IRTW%=(1−(TW(treated)/TW(control)))×100%, where TW is defined as tumor weight. Histograms were generated using Prism GraphPad (mean±S.E.M.), and T analysis was used for statistical analysis. A p value less than 0.05 represents a significant difference between groups and a p value less than 0.01 represents a highly significant difference between groups.
# [3] = system: kinase domain of the T790M double mutant; settings: cited from earlier work
Compound,in vitro activity in MCF7 cell line [1],Tumor Weight Inhibition Rate ([2]; 2 at 20 mg/kg alone),Tumor Weight ([2]; 2 at 20 mg/kg alone),inhibition of EGFR T790M double mutant kinase domain [3],Tumor Weight ([2]; 1 at 3 mg/kg alone),"Tumor Weight Inhibition Rate ([2]; 1 at 3 mg/kg alone, 3 mg/kg)"
"CCN1CCN(Cc2ccc(Nc3ncc(F)c(-c4ccc5nn(C)c(C(C)C)c5c4)n3)nc2)CC1 [Compound 2, N-[5-[(4-ethyl-1-piperazinyl)methyl]-2-pyridinyl]-5-fluoro-4-[2-methyl-3-(1-methylethyl)-2H-indazol-5-yl]-2-pyrimidinamine]",potent in vitro activity,30.2%,0.5864 ± 0.2235 g,,,
"C=CC(=O)Nc1cc(Nc2nccc(-c3cn(C)c4ccccc34)n2)c(OC)cc1OCCN(C)C [Compound 1, N-[2-[2-(dimethylamino)ethoxy]-4-methoxy-5-[[4-(1-methyl-1H-indol-3-yl)-2-pyrimidinyl]amino]phenyl]-2-propenamide]",,,,effectively inhibits,0.1423 ± 0.1152 g,83.1% and 83.1^f %
